Laboratory results taken from the NIST ThermoML archive (doi:10.1016/j.fluid.2012.12.008).
± gives the expanded uncertainty stated by the source.

Conditions: Liquid; for mass density: Vibrating tube method; for thermal conductivity: Hot wire method

CCCCCC[n+]1ccccc1.F[B-](F)(F)F [1-hexylpyridinium tetrafluoroborate]
Conditions | mass density, 293.15 K [kg/m3] | mass density, 303.15 K [kg/m3] | mass density, 313.15 K [kg/m3] | mass density, 323.15 K [kg/m3] | mass density, 333.15 K [kg/m3] | mass density, 343.15 K [kg/m3] | mass density, 353.15 K [kg/m3] | thermal conductivity, 294.2 K [W/m/K] | thermal conductivity, 314.3 K [W/m/K] | thermal conductivity, 334.3 K [W/m/K]
100 kPa | 1157 ± 4.8 | 1150.3 ± 4.7 | 1143.5 ± 4.7 | 1137 ± 4.7 | 1130 ± 4.6 | 1123.4 ± 4.6 | 1116.8 ± 4.6 | 0.163 ± 0.009 | 0.163 ± 0.009 | 0.161 ± 0.008
5000 kPa | 1159.5 ± 4.8 | 1152.9 ± 4.7 | 1146.1 ± 4.7 | 1139.7 ± 4.7 | 1132.7 ± 4.6 | 1126 ± 4.6 | 1119.5 ± 4.6 | – | – | –
10000 kPa | 1161.8 ± 4.8 | 1155.3 ± 4.8 | 1148.7 ± 4.7 | 1142.2 ± 4.7 | 1135.2 ± 4.7 | 1128.7 ± 4.6 | 1122.3 ± 4.6 | 0.165 ± 0.009 | 0.163 ± 0.009 | 0.162 ± 0.009
15000 kPa | 1164.1 ± 4.8 | 1157.6 ± 4.8 | 1151.1 ± 4.7 | 1144.5 ± 4.7 | 1137.8 ± 4.7 | 1131.2 ± 4.7 | 1125 ± 4.6 | – | – | –
20000 kPa | 1166.5 ± 4.8 | 1159.9 ± 4.8 | 1153.4 ± 4.8 | 1146.9 ± 4.7 | 1140.3 ± 4.7 | 1133.8 ± 4.7 | 1127.6 ± 4.6 | 0.166 ± 0.009 | 0.164 ± 0.009 | 0.163 ± 0.009

CCCC[n+]1ccccc1.F[B-](F)(F)F [1-butylpyridinium tetrafluoroborate]
Conditions | mass density, 293.15 K [kg/m3] | mass density, 303.15 K [kg/m3] | mass density, 313.15 K [kg/m3] | mass density, 323.15 K [kg/m3] | mass density, 333.15 K [kg/m3] | mass density, 343.15 K [kg/m3] | mass density, 353.15 K [kg/m3] | thermal conductivity, 294.2 K [W/m/K] | thermal conductivity, 314.3 K [W/m/K] | thermal conductivity, 334.3 K [W/m/K]
100 kPa | 1216.5 ± 5 | 1209.5 ± 5 | 1202.6 ± 4.9 | 1196 ± 4.9 | 1188.9 ± 4.9 | 1182 ± 4.9 | 1175.4 ± 4.8 | 0.171 ± 0.009 | 0.17 ± 0.009 | 0.169 ± 0.009
5000 kPa | 1219 ± 5 | 1211.9 ± 5 | 1205.1 ± 5 | 1198.5 ± 4.9 | 1191.4 ± 4.9 | 1184.5 ± 4.9 | 1177.9 ± 4.8 | – | – | –
10000 kPa | 1221.1 ± 5.1 | 1214.3 ± 5 | 1207.6 ± 5 | 1200.9 ± 5 | 1193.9 ± 4.9 | 1187 ± 4.9 | 1180.6 ± 4.9 | 0.171 ± 0.009 | 0.171 ± 0.009 | 0.171 ± 0.009
15000 kPa | 1223.4 ± 5.1 | 1216.4 ± 5 | 1209.9 ± 5 | 1203.2 ± 5 | 1196.4 ± 4.9 | 1189.5 ± 4.9 | 1183.3 ± 4.9 | – | – | –
20000 kPa | 1225.5 ± 5.1 | 1218.7 ± 5.1 | 1212 ± 5 | 1205.5 ± 5 | 1198.8 ± 5 | 1191.9 ± 4.9 | 1185.8 ± 4.9 | 0.173 ± 0.009 | 0.173 ± 0.009 | 0.172 ± 0.009

CCCCCCCC[n+]1ccccc1.F[B-](F)(F)F [1-octylpyridinium tetrafluoroborate]
Conditions | mass density, 293.15 K [kg/m3] | mass density, 303.15 K [kg/m3] | mass density, 313.15 K [kg/m3] | mass density, 323.15 K [kg/m3] | mass density, 333.15 K [kg/m3] | mass density, 343.15 K [kg/m3] | mass density, 353.15 K [kg/m3] | thermal conductivity, 294.2 K [W/m/K] | thermal conductivity, 314.3 K [W/m/K] | thermal conductivity, 334.3 K [W/m/K]
100 kPa | 1111.2 ± 4.6 | 1104.4 ± 4.5 | 1097.6 ± 4.5 | 1091.1 ± 4.5 | 1084.4 ± 4.4 | 1077.9 ± 4.4 | 1071.6 ± 4.4 | 0.16 ± 0.008 | 0.16 ± 0.008 | 0.158 ± 0.008
5000 kPa | 1113.8 ± 4.6 | 1107.1 ± 4.5 | 1100.3 ± 4.5 | 1093.9 ± 4.5 | 1087.1 ± 4.5 | 1080.7 ± 4.4 | 1074.4 ± 4.4 | – | – | –
10000 kPa | 1116.2 ± 4.6 | 1109.6 ± 4.6 | 1103 ± 4.5 | 1096.6 ± 4.5 | 1089.9 ± 4.5 | 1083.6 ± 4.4 | 1077.3 ± 4.4 | 0.163 ± 0.009 | 0.161 ± 0.008 | 0.159 ± 0.008
15000 kPa | 1118.6 ± 4.6 | 1112.1 ± 4.6 | 1105.4 ± 4.5 | 1099 ± 4.5 | 1092.6 ± 4.5 | 1086.2 ± 4.5 | 1080.1 ± 4.4 | – | – | –
20000 kPa | 1120.9 ± 4.6 | 1114.4 ± 4.6 | 1107.8 ± 4.6 | 1101.5 ± 4.5 | 1095.2 ± 4.5 | 1089 ± 4.5 | 1083 ± 4.4 | 0.165 ± 0.009 | 0.164 ± 0.009 | 0.161 ± 0.008
